Laboratory results taken from patent publication US8691802B2, “Stabilized compositions comprising a therapeutically active agent and an oxidizing preservative” (Allergan, Inc., priority 2005, dated 2014).
Like-named read-outs stand apart in the source and are kept apart here.

Details: for Stabilized Chlorine Dioxide Concentration: ingredient added to proprietary brimonidine composition; for Stabilization of chlorine dioxide by the excipient (in words): proprietary brimonidine composition
Procedure: Each of the excipients was added, in the amounts shown, to a proprietary composition comprising brimonidine as a therapeutically active agent.

Row | Compound | Stabilized Chlorine Dioxide Concentration (0 Days) | Stabilized Chlorine Dioxide Concentration (7 Days) | Stabilized Chlorine Dioxide Concentration (14 Days) | Stabilization of chlorine dioxide by the excipient (in words)
1 | CC(O)C(=O)[O-].[Na+] (stereo not shown) [Sodium Lactate] | 45 ppm | 40 ppm | 37 ppm | –
2 | O=C[O-].[Na+] [Sodium Formate] | 42 ppm | 40 ppm | 36 ppm | –
3 | CC(=O)C(=O)[O-].[Na+] [Sodium Pyruvate] | – | – | – | similarly ineffective
4 | NCCN [Ethylene diamine] | – | – | – | do not stabilize
5 | O=C([O-])/C(O)=C(\O)C(=O)[O-].[Na+].[Na+] [Sodium Dihydroxyfurmarate] | 37 ppm | 13 ppm | 0 ppm | –
6 | O=C(O)CN(CCN(CC(=O)O)CC(=O)O)CC(=O)O [EDTA] | 44 ppm | 2 ppm | 0 ppm | do not stabilize
7 | O=C([O-])C(=O)[O-].[Na+].[Na+] [Sodium Oxalate] | 39 ppm | 38 ppm | 35 ppm | similarly ineffective
